One assay has as its target IKKε (Homo sapiens (Human), UniProt Q14164). The assay can be described thus: TR-FRET kinase assay, IKKε. The assay is classed as biochemical. To be noted: full length recombinant IKKε 0.3 nM, 2x Km ATP, 1 μM peptide, 240 min at 25° C.; geometric mean of minimum four determinations. The text has this:
Biological Assay for TBK1 and IKKs:

Another assay addresses TBK1 (Homo sapiens (Human), UniProt Q9UHD2). Nature of the assay: TR-FRET kinase assay, TBK1. The note with it: read-out: TBK1-IC50; full length recombinant TBK1 2.5 nM, 2x Km ATP, 1 μM peptide, 240 min at 25° C.; geometric mean of minimum four determinations. (In TR-FRET formats the signal depends on donor and acceptor labels being close together.)

IKKε, sequence (Q14164 whole entry): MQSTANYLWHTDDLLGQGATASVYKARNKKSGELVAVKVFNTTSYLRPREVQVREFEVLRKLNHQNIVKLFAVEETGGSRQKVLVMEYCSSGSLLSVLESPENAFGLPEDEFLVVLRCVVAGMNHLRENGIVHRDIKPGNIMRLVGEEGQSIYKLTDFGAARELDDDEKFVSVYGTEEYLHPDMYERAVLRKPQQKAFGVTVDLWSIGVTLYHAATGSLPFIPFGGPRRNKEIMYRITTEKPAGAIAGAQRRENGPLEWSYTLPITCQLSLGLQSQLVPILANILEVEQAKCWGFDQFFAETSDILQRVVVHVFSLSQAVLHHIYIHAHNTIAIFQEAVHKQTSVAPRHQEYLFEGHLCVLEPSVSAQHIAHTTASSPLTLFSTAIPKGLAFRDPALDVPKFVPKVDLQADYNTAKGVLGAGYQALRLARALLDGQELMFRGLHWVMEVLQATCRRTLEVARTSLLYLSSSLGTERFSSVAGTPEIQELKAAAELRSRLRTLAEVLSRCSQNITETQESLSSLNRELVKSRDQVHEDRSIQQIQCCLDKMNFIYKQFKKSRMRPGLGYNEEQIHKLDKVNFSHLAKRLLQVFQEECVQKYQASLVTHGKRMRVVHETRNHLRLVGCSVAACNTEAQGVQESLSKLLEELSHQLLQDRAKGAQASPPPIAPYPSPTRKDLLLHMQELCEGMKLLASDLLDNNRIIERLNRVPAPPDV
TBK1, sequence (Q9UHD2 whole entry): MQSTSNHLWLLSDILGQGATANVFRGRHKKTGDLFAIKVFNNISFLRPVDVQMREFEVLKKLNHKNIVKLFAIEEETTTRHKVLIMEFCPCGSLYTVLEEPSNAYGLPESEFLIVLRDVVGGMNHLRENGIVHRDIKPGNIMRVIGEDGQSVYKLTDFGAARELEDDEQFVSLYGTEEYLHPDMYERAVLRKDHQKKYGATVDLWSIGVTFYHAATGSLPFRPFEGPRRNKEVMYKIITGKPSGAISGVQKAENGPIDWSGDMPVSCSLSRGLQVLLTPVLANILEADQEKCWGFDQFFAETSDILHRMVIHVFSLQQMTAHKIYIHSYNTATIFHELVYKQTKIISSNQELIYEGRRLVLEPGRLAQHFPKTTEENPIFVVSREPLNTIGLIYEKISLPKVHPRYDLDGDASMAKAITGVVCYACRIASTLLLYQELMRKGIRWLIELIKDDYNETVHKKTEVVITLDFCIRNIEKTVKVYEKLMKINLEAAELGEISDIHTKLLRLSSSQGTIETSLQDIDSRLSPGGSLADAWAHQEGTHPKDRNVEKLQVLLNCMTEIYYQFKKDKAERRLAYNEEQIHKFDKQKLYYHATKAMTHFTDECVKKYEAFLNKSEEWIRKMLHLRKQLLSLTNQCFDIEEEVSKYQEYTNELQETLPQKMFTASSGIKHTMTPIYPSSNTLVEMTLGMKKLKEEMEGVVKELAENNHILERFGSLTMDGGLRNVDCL

For orientation: IC50 means the concentration that inhibits the measured activity by half. In the case of `CC(C)(C)OC(=O)N1CC[C@@H](Oc2ccc(-c3ccnc4[nH]c(-c5ccc(N6CCOCC6)cc5)cc34)cc2C#N)C1` [Example 17, (R)-tert-butyl 3-(2-cyano-4-(2-(4-morpholinophenyl)-1H-pyrrolo[2,3-b]pyridin-4-yl)phenoxy)pyrrolidine-1-carboxylate], the IC50 stood at 394 nM on IKKε and 146 nM at TBK1.

For the compound `N#Cc1cccc(-c2ccnc3[nH]c(-c4ccc(N5CCOCC5)cc4)cc23)c1` [Example 79, 3-(2-(4-morpholinophenyl)-1H-pyrrolo[2,3-b]pyridin-4-yl)benzonitrile], the results for the half-inhibitory concentration (IC50) on IKKε and on TBK1 were > 1000 nM and 28.2 nM, respectively.

For the compound `COc1cc(C#N)cc(-c2ccnc3[nH]c(-c4ccc(N5CCOCC5)cc4)cc23)c1` [Example 33, 3-methoxy-5-(2-(4-morpholinophenyl)-1H-pyrrolo[2,3-b]pyridin-4-yl)benzonitrile], the IC50 at IKKε is > 1000 nM; at TBK1, 14.5 nM.

With `N#Cc1cc(-c2ncnc3[nH]c(-c4ccc(N5CCOCC5)cc4)nc23)ccc1OC1CCNCC1` [Example 204, 5-(8-(4-morpholinophenyl)-9H-purin-6-yl)-2-(piperidin-4-yloxy)benzonitrile], the half-maximal inhibitory concentration (IC50) on IKKε was 83.7 nM; at TBK1, 36.8 nM.

As for `N#Cc1cc(-c2ncnc3[nH]c(-c4ccc(CN5CCOCC5)cc4)nc23)ccc1OC1CCN(C(=O)C(F)F)CC1` [Example 266, 2-((1-(2,2-difluoroacetyl)piperidin-4-yl)oxy)-5-(8-(4-(morpholinomethyl)phenyl)-9H-purin-6-yl)benzonitrile], the IC50 at IKKε was 7.95 nM; at TBK1, 8.87 nM.

For the compound `N#Cc1cc(-c2ccnc3[nH]c(-c4ccc(N5CCOCC5)cc4)cc23)ccc1OC1CCOCC1` [Example 48, 5-(2-(4-morpholinophenyl)-1H-pyrrolo[2,3-b]pyridin-4-yl)-2-((tetrahydro-2H-pyran-4-yl)oxy)benzonitrile], the results for the 50% inhibitory concentration (IC50) at IKKε and at TBK1 were 11.5 nM and 3.26 nM, respectively.

Consider `N#Cc1cc(-c2ccnc3[nH]c(-c4ccccc4)cc23)ccc1OC1CCOCC1` [Example 83, 5-(2-phenyl-1H-pyrrolo[2,3-b]pyridin-4-yl)-2-((tetrahydro-2H-pyran-4-yl)oxy)benzonitrile], for which the half-inhibitory concentration (IC50) at IKKε is 19.8 nM; on TBK1, > 1000 nM.

With `CN1CCN(c2ccc(-c3cc4c(-c5ccc(OC6CCOCC6)c(C#N)c5)ccnc4[nH]3)cc2)CC1` [Example 82, 5-(2-(4-(4-methylpiperazin-1-yl)phenyl)-1H-pyrrolo[2,3-b]pyridin-4-yl)-2-((tetrahydro-2H-pyran-4-yl)oxy)benzonitrile], the values for the IC50 at IKKε and at TBK1 were 0.29 nM and 0.9 nM, respectively.

With `COc1cc(N2CCOCC2)ccc1-c1cc2c(-c3ccc(OC4CCOCC4)c(C#N)c3)ncnc2[nH]1` [Example 137, 5-(6-(2-methoxy-4-morpholinophenyl)-7H-pyrrolo[2,3-d]pyrimidin-4-yl)-2-((tetrahydro-2H-pyran-4-yl)oxy)benzonitrile], the half-inhibitory concentration (IC50) at IKKε was 47.5 nM; on TBK1, 9.78 nM.

Take `N#Cc1cc(-c2ccnc3[nH]c(-c4ccc(N5CCOCC5)cc4)cc23)ccc1OC1CCNCC1` [Example 18, 5-(2-(4-morpholinophenyl)-1H-pyrrolo[2,3-b]pyridin-4-yl)-2-(piperidin-4-yloxy)benzonitrile]: the concentration for half-maximal inhibition (IC50) on IKKε was determined as 33.2 nM; at TBK1, 17.1 nM.

For the compound “4-(2-cyano-4-(2-(4-(4-(2,2-difluoroethyl)piperazin-1-yl)phenyl)-3H-imidazo[4,5-b]pyridin-7-yl)phenoxy)piperidine-1-sulfonamide [Example 263]”, the half-maximal inhibitory concentration (IC50) stood at 6.32 nM at IKKε and 3.07 nM at TBK1.

Regarding `N#Cc1cc(-c2ccnc3[nH]c(C(=O)Nc4ccccc4)cc23)ccc1OC1CCOCC1` [Example 61, 4-(3-cyano-4-((tetrahydro-2H-pyran-4-yl)oxy)phenyl)-N-phenyl-1H-pyrrolo[2,3-b]pyridine-2-carboxamide], the figures for the IC50 at IKKε and at TBK1 were 112 nM and 312 nM, respectively.

For the origin of these results see patent publication US10072001B2, “Tank-binding kinase inhibitor compounds” (Gilead Sciences, Inc., priority 2014, dated 2018).
